The assay relates to SKM MYOFIBRIL
Briefly: SKM myofibril AC1.4 (ATPase, PK/LDH coupled enzyme system). Also: unit not given here. It is filed as biochemical. The settings on record: screen at pCa=6.5.
In the case of `NC(=O)c1ccc2nc(-c3ccccc3O)c(NCc3cccc(Cl)c3)n2c1` [3-{[(3-chlorophenyl)methyl]amino}-2-(2-hydroxyphenyl)-4-hydroimidazo[1,2-a]pyridine-6-carboxamide], the “SKM MYOFIBRIL AC1.4 (median)” value is 1.2788.
To `O=C(O)c1ccc2nc(-c3ccccc3O)c(NCc3cccc(Cl)c3)n2c1` [3-{[(3-chlorophenyl)methyl]amino}-2-(2-hydroxyphenyl)-4-hydroimidazo[1,2-a]pyridine-6-carboxylic acid] belongs 15.043; to `NC(=O)c1ccc2nc(-c3ccccc3O)c(NCc3ccc(F)cc3)n2c1` [3-{[(4-fluorophenyl)methyl]amino}-2-(2-hydroxyphenyl)-4-hydroimidazo[1,2-a]pyridine-6-carboxamide], 2.0079.
For `O=C(O)c1ccc2nc(-c3ccccc3O)c(NCc3ccc(F)cc3)n2c1` [3-{[(4-fluorophenyl)methyl]amino}-2-(2-hydroxyphenyl)-4-hydroimidazo[1,2-a]pyridine-6-carboxylic acid], the “SKM MYOFIBRIL AC1.4 (median)” value is reported as 30.4725.
Next, `N#Cc1ccn2c(NCc3ccc(F)cc3)c(-c3ccc(O)cc3)nc2c1` [3-{[(4-fluorophenyl)methyl]amino}-2-(4-hydroxyphenyl)-4-hydroimidazo[1,2-a]pyridine-7-carbonitrile]: 19.6705.
Regarding `Oc1ccc(-c2nc3ccccn3c2NCc2ccc(F)cc2F)cc1` [4-(3-{[(2,4-difluorophenyl)methyl]amino}-4-hydroimidazo[1,2-a]pyridin-2-yl)phenol], the “SKM MYOFIBRIL AC1.4 (median)” value stood at 37.1035.
`Oc1ccc(-c2nc3ccccn3c2NCc2ccccc2Cl)cc1` [4-(3-{[(2-chlorophenyl)methyl]amino}-4-hydroimidazo[1,2-a]pyridin-2-yl)phenol]: the “SKM MYOFIBRIL AC1.4 (median)” value came out at 17.7003.
With `Oc1ccc(-c2nc3ccccn3c2NCc2cccc(Cl)c2)cc1` [4-(3-{[(3-chlorophenyl)methyl]amino}-4-hydroimidazo[1,2-a]pyridin-2-yl)phenol], the “SKM MYOFIBRIL AC1.4 (median)” value was 10.5567.
On to `Cc1ccn2c(NCc3cccc(Cl)c3)c(-c3ccc(O)cc3O)nc2c1` [4-(3-{[(3-chlorophenyl)methyl]amino}-7-methyl-4-hydroimidazo[1,2-a]pyridin-2-yl)benzene-1,3-diol], for which the “SKM MYOFIBRIL AC1.4 (median)” value is listed as 22.1516.
On to `Oc1ccc(-c2nc3ccccn3c2NCc2cccc(F)c2)cc1` [4-(3-{[(3-fluorophenyl)methyl]amino}-4-hydroimidazo[1,2-a]pyridin-2-yl)phenol], for which the “SKM MYOFIBRIL AC1.4 (median)” value was determined as 28.3763.
To `Oc1ccc(-c2nc3ccccn3c2NCc2ccc(Cl)cc2)cc1` [4-(3-{[(4-chlorophenyl)methyl]amino}-4-hydroimidazo[1,2-a]pyridin-2-yl)phenol] belongs 21.4002.
Next, `Oc1ccc(-c2nc3ccccn3c2NCc2ccc(F)cc2)cc1` [4-(3-{[(4-fluorophenyl)methyl]amino}-4-hydroimidazo[1,2-a]pyridin-2-yl)phenol]: 40.3674.
Next, `Oc1ccc(-c2nc3ccc(-c4ccccc4)cn3c2NCc2ccc(F)cc2)cc1` [4-(3-{[(4-fluorophenyl)methyl]amino}-6-phenyl-4-hydroimidazo[1,2-a]pyridin-2-yl)phenol]: 15.7257; `Cc1ccn2c(NCc3ccc(F)cc3)c(-c3ccc(O)cc3)nc2c1` [4-(3-{[(4-fluorophenyl)methyl]amino}-7-methyl-4-hydroimidazo[1,2-a]pyridin-2-yl)phenol]: 44.5161; `Oc1ccc(-c2nc3ccc(Cl)cn3c2NCc2ccc(F)cc2)cc1` [4-(6-chloro-3-{[(4-fluorophenyl)methyl]amino}-4-hydroimidazo[1,2-a]pyridin-2-yl)phenol]: 14.9602.
On to `Oc1ccc(-c2nc3ccc(F)cn3c2NCc2ccc(F)cc2)cc1` [4-(6-fluoro-3-{[(4-fluorophenyl)methyl]amino}-4-hydroimidazo[1,2-a]pyridin-2-yl)phenol], for which the “SKM MYOFIBRIL AC1.4 (median)” value amounted to 26.5123.
To `Oc1ccc(-c2nc3cc(Cl)ccn3c2NCc2ccc(F)cc2)cc1` [4-(7-chloro-3-{[(4-fluorophenyl)methyl]amino}-4-hydroimidazo[1,2-a]pyridin-2-yl)phenol] belongs 10.9866; to `CCCCNc1c(-c2ccc(O)cc2)nc2ccccn12` [4-[3-(butylamino)-4-hydroimidazo[1,2-a]pyridin-2-yl]phenol], 27.9936.
With `Oc1ccc(-c2nc3ccccn3c2NC2CCCCC2)cc1` [4-[3-(cyclohexylamino)-4-hydroimidazo[1,2-a]pyridin-2-yl]phenol], the “SKM MYOFIBRIL AC1.4 (median)” value was 8.513.
`CCc1ccc2nc(-c3ccc(O)cc3)c(NC3CCCCC3)n2c1` [4-[3-(cyclohexylamino)-6-ethyl-4-hydroimidazo[1,2-a]pyridin-2-yl]phenol]: the “SKM MYOFIBRIL AC1.4 (median)” value amounted to 4.3136.
As to `Cc1cccn2c(NC3CCCCC3)c(-c3ccc(O)cc3)nc12` [4-[3-(cyclohexylamino)-8-methyl-4-hydroimidazo[1,2-a]pyridin-2-yl]phenol], the “SKM MYOFIBRIL AC1.4 (median)” value is 8.8767.
Next, `Oc1ccc(-c2nc3ccccn3c2NC2CCCC2)cc1` [4-[3-(cyclopentylamino)-4-hydroimidazo[1,2-a]pyridin-2-yl]phenol]: 19.8598.
Consider `Oc1ccc(-c2nc3ccc(F)cn3c2NC2CCCC2)cc1` [4-[3-(cyclopentylamino)-6-fluoro-4-hydroimidazo[1,2-a]pyridin-2-yl]phenol], for which the “SKM MYOFIBRIL AC1.4 (median)” value is 26.6981.
To `Cc1ccc2nc(-c3ccc(O)cc3)c(NC3CCCC3)n2c1` [4-[3-(cyclopentylamino)-6-methyl-4-hydroimidazo[1,2-a]pyridin-2-yl]phenol] belongs 13.5754; to `Oc1ccc(-c2nc3ccc(-c4ccccc4)cn3c2NC2CCCC2)cc1` [4-[3-(cyclopentylamino)-6-phenyl-4-hydroimidazo[1,2-a]pyridin-2-yl]phenol], 22.1213; to `CCc1ccn2c(NC3CCCC3)c(-c3ccc(O)cc3)nc2c1` [4-[3-(cyclopentylamino)-7-ethyl-4-hydroimidazo[1,2-a]pyridin-2-yl]phenol], 7.5674.
Next, `Cc1ccn2c(NC3CCCC3)c(-c3ccc(O)cc3)nc2c1` [4-[3-(cyclopentylamino)-7-methyl-4-hydroimidazo[1,2-a]pyridin-2-yl]phenol]: 4.685; `Oc1ccc(-c2nc3cccc(Br)n3c2NC2CCCCC2)cc1` [4-[5-bromo-3-(cyclohexylamino)-4-hydroimidazo[1,2-a]pyridin-2-yl]phenol]: 21.5453.
For the molecule `Oc1ccc(-c2nc3ccc(Br)cn3c2NC2CCCCC2)cc1` [4-[6-bromo-3-(cyclohexylamino)-4-hydroimidazo[1,2-a]pyridin-2-yl]phenol], the “SKM MYOFIBRIL AC1.4 (median)” value was determined as 12.8016.
To `Cc1cccc2cc3c(nc12)OCC(=O)N(Cc1ccc(Cl)cc1)C3` [4-[(4-chlorophenyl)methyl]-10-methyl-2H,5H-1,4-oxazaperhydroepino[7,6-b]quinolin-3-one] belongs 18.1529; to `CC(C)(C)CC(C)(C)Nc1c(-c2ccc(O)cc2)nc2ccccn12` [4-{3-[(1,1,3,3-tetramethylbutyl)amino]-4-hydroimidazo[1,2-a]pyridin-2-yl}phenol], 23.4246.

Values taken from patent publication US20100173930A1, “Certain Chemical Entities, Compositions and Methods” (priority 2006, published 2010).
